Here are results for 24 molecules from patent publication US8273762B2, “Hexahydro-pyrrolo-isoquinoline compounds” (Janssen Pharmaceutica NV, priority 2005, dated 2012).

Assay [1] has as its target T1, cloned human H3 receptor, stably expressed in SK-N-MC cells (Homo sapiens, UniProt Q9Y5N1).
T1 construct: expressed in transfected cells
In words: H3 receptor binding (N-[3H]-α-methylhistamine displacement). The following applies: SK-N-MC membranes, 0.8 nM N-[3H]-α-methylhistamine.

In assay [2] the target is T2, human H3 receptor (SK-N-MC cells) (Homo sapiens, UniProt Q9Y5N1).
T2 construct: expressed in transfected cells; host or cells: SK-N-MC sublines with CRE-beta-galactosidase reporter
T2 sequence (Q9Y5N1 whole entry): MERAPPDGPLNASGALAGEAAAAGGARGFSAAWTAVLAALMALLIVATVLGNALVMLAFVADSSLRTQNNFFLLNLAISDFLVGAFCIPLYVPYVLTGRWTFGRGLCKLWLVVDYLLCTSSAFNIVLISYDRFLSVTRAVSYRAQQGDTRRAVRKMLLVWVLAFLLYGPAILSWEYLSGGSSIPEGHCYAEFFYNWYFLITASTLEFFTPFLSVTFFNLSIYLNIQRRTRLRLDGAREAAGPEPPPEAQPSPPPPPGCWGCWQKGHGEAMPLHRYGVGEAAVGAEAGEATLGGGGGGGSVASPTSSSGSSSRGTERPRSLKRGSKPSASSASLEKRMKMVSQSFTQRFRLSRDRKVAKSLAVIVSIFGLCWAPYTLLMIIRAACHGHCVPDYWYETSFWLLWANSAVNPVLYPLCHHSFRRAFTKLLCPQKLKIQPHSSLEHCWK
In words: Cyclic AMP accumulation (β-galactosidase reporter, Schild analysis vs histamine). In kind it is cell-based.
Description: The reporter gene (β-galactosidase) is under the control of multiple cyclic AMP responsive elements. In 96-well plates, histamine was added directly to the cell media followed 5 min later by an addition of forskolin (5 μM final concentration). When appropriate, antagonists were added 10 min prior to agonist addition. After a 6-h incubation at 37° C., the media was aspirated and the cells washed with 200 μL of phosphate-buffered saline followed by a second aspiration. Cells were lysed with 25 μL 0.1× assay buffer (10 mM Na-phosphate, pH 8, 0.2 mM MgSO4, 0.01 mM MnCl2) and incubated at rt for 10 min. Cells were then incubated for 10 min with 100 μL of 1× assay buffer containing 0.5% Triton and 40 mM β-mercaptoethanol. Color was developed using 25 μL of 1 mg/mL substrate solution (chlorophenolred β-D galactopyranoside; Roche Molecular Biochemicals, Indianapolis, Ind.).

For assay [3], the target named is T3, human SERT (HEK293 membranes) (Homo sapiens, UniProt P31645).
T3 construct: purchased Perkin-Elmer; host or cells: HEK293 membranes
T3 sequence (P31645 whole entry): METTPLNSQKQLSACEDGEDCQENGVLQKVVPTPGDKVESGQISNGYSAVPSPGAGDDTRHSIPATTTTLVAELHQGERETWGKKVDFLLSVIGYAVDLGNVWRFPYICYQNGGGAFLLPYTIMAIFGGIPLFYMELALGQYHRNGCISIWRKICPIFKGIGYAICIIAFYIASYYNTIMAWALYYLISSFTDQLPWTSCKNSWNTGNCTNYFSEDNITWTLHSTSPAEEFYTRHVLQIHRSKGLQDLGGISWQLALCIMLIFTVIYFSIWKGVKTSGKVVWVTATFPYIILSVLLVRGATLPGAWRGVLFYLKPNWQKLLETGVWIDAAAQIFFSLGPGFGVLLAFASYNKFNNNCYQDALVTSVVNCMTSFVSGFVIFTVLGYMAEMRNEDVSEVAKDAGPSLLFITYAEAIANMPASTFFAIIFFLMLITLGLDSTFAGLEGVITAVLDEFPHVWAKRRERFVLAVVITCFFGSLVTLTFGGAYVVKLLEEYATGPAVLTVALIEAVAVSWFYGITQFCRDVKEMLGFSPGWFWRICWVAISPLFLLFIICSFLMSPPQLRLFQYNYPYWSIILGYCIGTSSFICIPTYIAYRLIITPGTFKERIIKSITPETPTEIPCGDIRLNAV
Nature of the assay: Human SERT binding (3H-citalopram displacement).
Description: Nonspecific binding was determined in the presence of 10 μM fluoxetine for the SERT. The membranes were washed and the radioactivity was counted as above.

Where two headings read alike, the source gives them in different places.

T1 sequence (Q9Y5N1 whole entry): as the sequence (Q9Y5N1 whole entry) above

For the molecule `O=[N+]([O-])c1ccc([C@H]2CN3CCC[C@H]3c3cc(OCCCN4CCCCC4)ccc32)cc1` (relative stereo) [Example 2A, Cis-6-(4-Nitro-phenyl)-9-(3-piperidin-1-yl-propoxy)-1,2,3,5,6,10b-hexahydro-pyrrolo[2,1-a]isoquinoline], the inhibition constant Ki was determined as 1 nM in assay [1] and 6 nM in assay [3]. The Kb in assay [2] (read-out: H3 pA2 (converted)) is 0.398 nM.
For `Nc1ccc([C@H]2CN3CCC[C@H]3c3cc(OCCCN4CCCCC4)ccc32)cc1` (relative stereo) [Example 3], the Ki in assay [1] is 0.5 nM; in assay [3] it was 8 nM. In assay [2] (read-out: H3 pA2 (converted)), the Kb was 0.0794 nM.
In the same order, the values of `O=[N+]([O-])c1cccc([C@H]2CN3CCC[C@H]3c3cc(OCCCN4CCCCC4)ccc32)c1` (relative stereo) [Example 4A, Cis-6-(3-Nitro-phenyl)-9-(3-piperidin-1-yl-propoxy)-1,2,3,5,6,10b-hexahydro-pyrrolo[2,1-a]isoquinoline] are 1 nM, 4 nM and 0.126 nM.
In the same order, the values of `Cc1ccc([C@H]2CN3CCC[C@H]3c3cc(OCCCN4CCCCC4)ccc32)cc1` (relative stereo) [Example 5A, Cis-9-(3-Piperidine-1-yl-propoxy)-6-p-tolyl-1,2,3,5,6,10b-hexahydro-pyrrolo[2,1-a]isoquinoline] are 2 nM, 4 nM and 2.51 nM.
For `Clc1ccc([C@@H]2CN3CCC[C@H]3c3cc(OCCCN4CCCCC4)ccc32)cc1Cl` (relative stereo) [Example 6A, Cis-6-(3,4-Dichloro-phenyl)-9-(3-piperidin-1-yl-propoxy)-1,2,3,5,6,10b-hexahydro-pyrrolo[2,1-a]isoquinoline] the same measures were 3 nM, 4 nM and 6.31 nM.
Regarding `FC(F)(F)c1ccc([C@H]2CN3CCC[C@H]3c3cc(OCCCN4CCCCC4)ccc32)cc1` (relative stereo) [Example 7A, Cis-9-(3-Piperidin-1-yl-propoxy)-6-(4-trifluoromethyl-phenyl)-1,2,3,5,6,10b-hexahydro-pyrrolo[2,1-a]isoquinoline], the Ki in assay [1] is 5 nM; in assay [3], 12 nM. In addition, the Kb in assay [2] (read-out: H3 pA2 (converted)) was 6.31 nM.
In the same order, the values of `Clc1ccccc1[C@@H]1CN2CCC[C@H]2c2cc(OCCCN3CCCCC3)ccc21` (relative stereo) [Example 12A, Cis-6-(2-Chloro-phenyl)-9-(3-piperidin-1-yl-propoxy)-1,2,3,5,6,10b-hexahydro-pyrrolo[2,1-a]isoquinoline] are 2 nM, 8 nM and 1.26 nM.
For `Clc1ccccc1[C@H]1CN2CCC[C@H]2c2cc(OCCCN3CCCCC3)ccc21` (relative stereo) [Example 12B, Trans-6-(2-Chloro-phenyl)-9-(3-piperidin-1-yl-propoxy)-1,2,3,5,6,10b-hexahydro-pyrrolo[2,1-a]isoquinoline], in assay [1], the affinity, expressed as Ki, was 1 nM. In addition, in assay [2] (read-out: H3 pA2 (converted)), the Kb was 0.631 nM.
`COc1ccccc1[C@H]1CN2CCC[C@H]2c2cc(OCCCN3CCCCC3)ccc21` (relative stereo) [Example 13A] returned a Ki in assay [3] of 21 nM.
Take `Fc1ccc([C@@H]2CN3CCC[C@H]3c3cc(OCCCN4CCCCC4)ccc32)cc1` (relative stereo) [Example 14A, Cis-6-(4-Fluoro-phenyl)-9-(3-piperidin-1-yl-propoxy)-1,2,3,5,6,10b-hexahydro-pyrrolo[2,1-a]isoquinoline]: the Ki in assay [1] was determined as 2 nM; in assay [3], 3 nM. Moreover, the Kb in assay [2] (read-out: H3 pA2 (converted)) was 1 nM.
In turn, `Fc1ccc([C@H]2CN3CCC[C@H]3c3cc(OCCCN4CCCCC4)ccc32)cc1` (relative stereo) [Example 14B, Trans-6-(4-Fluoro-phenyl)-9-(3-piperidin-1-yl-propoxy)-1,2,3,5,6,10b-hexahydro-pyrrolo[2,1-a]isoquinoline] showed a Ki in assay [1] of 1 nM. The Kb in assay [2] (read-out: H3 pA2 (converted)) is 0.794 nM.
As to `Oc1cccc([C@H]2CN3CCC[C@H]3c3cc(OCCCN4CCCCC4)ccc32)c1` (relative stereo) [Example 15], the Ki in assay [1] came out at 0.7 nM; in assay [3], 3 nM. The Kb in assay [2] (read-out: H3 pA2 (converted)) is 0.126 nM.
With `c1ccc([C@H]2CN3CCC[C@H]3c3cc(OCCCN4CCCCC4)ccc32)nc1` (relative stereo) [Example 25], in assay [1], the Ki is 0.8 nM. This molecule had a Kb in assay [2] of 0.1 nM.
In assay [1], `c1cncc([C@H]2CN3CCC[C@H]3c3cc(OCCCN4CCCCC4)ccc32)c1` (relative stereo) [Example 26] had a Ki of 0.8 nM. In addition, in assay [2] (read-out: H3 pA2 (converted)), the Kb is 0.0794 nM.
`COc1ccc([C@H]2CN3CCC[C@H]3c3cc(OCC4CCN(C(C)C)CC4)ccc32)cc1` (relative stereo) [Example 29]: the inhibitory constant (Ki) amounted to 0.9 nM in assay [1] and 2 nM in assay [3].
Turning to `Cc1cccc([C@H]2CN3CCC[C@H]3c3cc(OCCCN4CCCCC4)ccc32)c1` (relative stereo) [Example 31], the Ki in assay [1] was 12 nM; in assay [3], 28 nM.
As for `Ic1ccc([C@H]2CN3CCC[C@H]3c3cc(OCCCN4CCCCC4)ccc32)cc1` (relative stereo) [Example 35B, Trans-6-(4-Iodo-phenyl)-9-(3-piperidin-1-yl-propoxy)-1,2,3,5,6,10b-hexahydro-pyrrolo[2,1-a]isoquinoline], the inhibition constant Ki in assay [1] worked out at 2 nM. Also, in assay [2] (read-out: H3 pA2 (converted)), the Kb is 3.16 nM.
Take `COc1ccc([C@H]2CN3CCC[C@H]3c3cc(OCCCN4CCOCC4)ccc32)cc1` (relative stereo) [Example 38]: the Ki in assay [3] was found to be 7 nM.
On to `CSc1ccc([C@H]2CN3CCC[C@H]3c3cc(OCCCN4CCCCC4)ccc32)cc1` (relative stereo) [Example 39A, Cis-6-(4-Methylsulfanyl-phenyl)-9-(3-piperidin-1-yl-propoxy)-1,2,3,5,6,10b-hexahydro-pyrrolo[2,1-a]isoquinoline], for which the results for the Ki in assay [1] and in assay [3] were 2 nM and 4 nM, respectively.
Regarding `Brc1ccc([C@H]2CN3CCC[C@H]3c3cc(OCCCN4CCCCC4)ccc32)cc1` (relative stereo) [Example 40], the Ki was 3 nM in assay [1] and 18 nM in assay [3].
On to `COc1ccc([C@H]2CN3CCC[C@H]3c3cc(OCCCN4CCC(F)CC4)ccc32)cc1` (relative stereo) [Example 47], for which the Ki in assay [1] was 3 nM; in assay [3], 5 nM.
In the same order, the values of `Clc1ccc([C@@H]2CN3CCC[C@H]3c3cc(OCCCN4CCCCC4)ccc32)cc1` (relative stereo) [Example 66A, Cis-6-(4-Chloro-phenyl)-9-(3-piperidin-1-yl-propoxy)-1,2,3,5,6,10b-hexahydro-pyrrolo[2,1-a]isoquinoline] are 2 nM and 6 nM.
As to `CSc1ccc([C@H]2CN3CCC[C@H]3c3ccc(C#CCCN4CCCCC4)cc32)cc1` (relative stereo) [Example 97B, Trans-6-(4-methylsulfanyl-phenyl)-8-(4-piperidin-1-yl-but-1-ynyl)-1,2,3,5,6,10b-hexahydro-pyrrolo[2,1-a]isoquinoline], the affinity in assay [1] corresponds to a Ki of 12 nM. The Kb in assay [2] (read-out: H3 pA2 (converted)) is 10 nM.
Molecule `CSc1ccc([C@H]2CN3CCC[C@H]3c3cc(C#CCCN4CCCCC4)ccc32)cc1` (relative stereo) [Example 98B, Trans-6-(4-methylsulfanyl-phenyl)-9-(4-piperidin-1-yl-but-1-ynyl)-1,2,3,5,6,10b-hexahydro-pyrrolo[2,1-a]isoquinoline] returned a Ki in assay [1] of 3 nM. Besides, the Kb in assay [2] (read-out: H3 pA2 (converted)) was 2.51 nM.

As a reminder, the Ki is a measure of affinity in units of concentration, obtained from inhibition or displacement. Read a low Ki as a stronger hold on the target.
